Measurements as given in US20220194983A1, “PEPTIDE LIGANDS FOR BINDING TO PSMA” (BicycleTx Limited, priority 2018, published 2022).
Values joined by “and” are separate entries in the source; they are usually repeats but may differ in a detail not shown here. Equal entries are not always repeated.

Molecular target: PSMA (Homo sapiens, UniProt Q04609)
Experiment: measured PSMA affinities (ka, kd, KD) of Dap(Me) substituted bicycles, Table 1
Type: binding
Conditions: for ka: association rate; for kd: dissociation rate

PSMA, sequence (Q04609 whole entry): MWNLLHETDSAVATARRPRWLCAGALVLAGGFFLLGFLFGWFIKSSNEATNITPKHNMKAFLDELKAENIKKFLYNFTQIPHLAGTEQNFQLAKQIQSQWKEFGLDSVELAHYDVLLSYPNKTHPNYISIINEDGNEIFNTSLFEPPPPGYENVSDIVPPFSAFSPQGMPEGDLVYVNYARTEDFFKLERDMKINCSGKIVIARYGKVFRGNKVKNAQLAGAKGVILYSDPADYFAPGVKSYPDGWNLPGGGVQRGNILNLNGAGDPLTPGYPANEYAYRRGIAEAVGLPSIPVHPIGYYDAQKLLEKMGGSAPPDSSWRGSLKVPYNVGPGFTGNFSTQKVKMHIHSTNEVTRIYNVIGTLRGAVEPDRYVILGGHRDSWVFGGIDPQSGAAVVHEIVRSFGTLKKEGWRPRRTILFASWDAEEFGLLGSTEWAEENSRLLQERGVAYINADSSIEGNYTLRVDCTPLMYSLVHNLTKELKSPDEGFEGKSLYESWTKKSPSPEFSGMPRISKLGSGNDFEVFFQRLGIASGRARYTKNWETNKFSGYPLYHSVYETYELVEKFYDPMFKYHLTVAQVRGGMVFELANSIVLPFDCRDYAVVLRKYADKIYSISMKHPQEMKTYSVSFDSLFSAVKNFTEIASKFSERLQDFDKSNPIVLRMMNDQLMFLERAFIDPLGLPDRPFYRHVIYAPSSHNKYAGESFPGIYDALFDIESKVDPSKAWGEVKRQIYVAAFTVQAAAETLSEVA

Substance | ka | kd
[Ac][dE]V[Dap(Me)]WDCF[tBuAla][Nle]EDGT[Dap(Me)]A [BCY00009307] | 6.71E+04 M1s1 | 3.26E−02 s1
[Ac][dE]V[Dap(Me)]WDCF[Nle]LEDGT[Dap(Me)]A [BCY00009310] | 5.93E+04 M1s1 | 4.32E−02 s1
[Ac][dE]V[Dap(Me)]WDCK[Nle][Nle]EDGT[Dap(Me)]A [BCY00009315] | 2.81E+04 M1s1 | 4.62E−02 s1
[Glutarate][dE]V[Dap(Me)]WDCF[Nle][Nle]EDGT[Dap(Me)]A [BCY00009313] | 1.24E+05 M1s1 | 9.81E−03 s1
[Ac][dE]V[Dap(Me)]WDCFL[Nle]EDGT[Dap(Me)]A [BCY00009306] | 9.04E+04 M1s1 | 1.97E−02 s1
[Ac][Gla]V[Dap(Me)]WDCF[Nle][Nle]EDGT[Dap(Me)]A [BCY00009312] | 1.01E+05 M1s1 and 7.35E+04 M1s1 | 7.77E−03 s1 and 1.21E−02 s1
[Ac][dE]V[Dap(Me)]WDCF[Nle][Nle]EDGT[Dap(Me)]A [BCY00009300] | 7.04E+04 M1s1 | 1.02E−02 s1
[Ac][dE]V[Dap(Me)]KDCF[Nle][Nle]EDGT[Dap(Me)]A [BCY00009314] | 3.79E+04 M1s1 | 3.86E−02 s1
[Ac][dE]V[Dap(Me)][2Nal]DCF[Nle][Nle]EDGT[Dap(Me)]A [BCY00009303] | 8.74E+04 M1s1 | 1.86E−02 s1
[Ac][dE]V[Dap(Me)]WDCY[Nle][Nle]EDGT[Dap(Me)]A [BCY00009304] | 1.03E+05 M1s1 | 1.24E−02 s1
[Ac][dE]V[Dap(Me)]WDCF[Nle][tBuAla]EDGT[Dap(Me)]A [BCY00009311] | 2.51E+04 M1s1 | 3.10E−03 s1
[Ac][dE]V[Dap(Me)]WDCFY[Nle]EDGT[Dap(Me)]A [BCY00009308] | 8.73E+04 M1s1 | 2.88E−02 s1
[Ac][dE]V[Dap(Me)]WDCF[Hse(Me)][Nle]EDGT[Dap(Me)]A [BCY00009305] | 4.32E+04 M1s1 | 5.35E−02 s1
[Ac][dE]V[Dap(Me)]WDCF[Nle][Hse(Me)]EDGT[Dap(Me)]A [BCY00009309] | 5.17E+04 M1s1 | 2.93E−01 s1
